In article PMC5597121, “The human bitter taste receptor T2R38 is broadly tuned for bacterial compounds” (PLoS ONE, 2017):
Positions count from the first letter of the chain named. “And” between values parts separate entries of the source, which are not always exact repeats. Equal entries are not always repeated. “Also recorded” adds a separate entry of the source. Each block holds one compound with its values, some of them ahead of it. Positions of bridges follow the written chain, without caps; N, C: chain ends. Residues, ends and D or L forms follow the SMILES beside them.

Tests used:
T2R38 = target: T1, T2R38 (Homo sapiens, UniProt P59533, A49P/I296V); assay: Single cell calcium imaging, Peakrapid cells (Gα16gustducin44) transiently transfected with T2R38; assay type: cell-based
T1 construct: leader: first 45 amino acids of rat somatostatin receptor subtype 3 (SSTR3) (N); expressed in transfected cells; host or cells: Peakrapid cells (HEK293 derivative, ATCC CRL-2828) stably expressing Galpha16gustducin44, co-transfected with human RTP4
T1 sequence (P59533 1-333 A49P/I296V): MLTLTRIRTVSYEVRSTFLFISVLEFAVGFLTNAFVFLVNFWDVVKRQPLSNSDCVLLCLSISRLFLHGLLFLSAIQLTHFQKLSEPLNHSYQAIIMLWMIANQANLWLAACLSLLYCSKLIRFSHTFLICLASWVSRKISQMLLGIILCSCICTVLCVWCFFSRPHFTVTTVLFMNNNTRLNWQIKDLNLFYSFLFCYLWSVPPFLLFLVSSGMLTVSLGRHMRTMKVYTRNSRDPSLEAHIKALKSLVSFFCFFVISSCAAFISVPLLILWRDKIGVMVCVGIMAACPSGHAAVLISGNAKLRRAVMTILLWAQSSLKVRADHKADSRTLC
Text: (§1) The coding sequences of either the functional (PAV, GenBank accession number AY258597.1) and non-functional (AVI, GenBank accession number AF494231.1) were amplified from human genomic DNA by polymerase chain reaction.
These coding sequences were cloned in a pEFIB backbone vector in translational fusion with the coding sequence of a leader sequence corresponding to the 45 first amino acids of the rat somatostatin receptor subtype 3 [20]. The constructs were verified by sequencing. The coding sequence of RTP4 (Genbank accession number AY562238.1) was amplified from human spleen cDNA and cloned a pCI backbone vector.
The Gα16gustducin44 sequence was generated by swapping the last 132 nucleotides of the G α16 with the corresponding terminal sequence of the Gα-gustducin [21] and was cloned in a pIRES-Puro plasmid. This vector was transfected in the Peakrapid cell line (ATCC reference: CRL-2828™; purchased from LGC Standards SARL, Molsheim, FRANCE), HEK293 cell line derivative, cultured in EMEM culture medium (reference BE12-136F; Lonza, Vervier, BELGIUM) supplemented with 10% of foetal bovine serum (Sigma-Aldrich, Bornem, Belgium) and 1 μg/ml of Puromycin to allow the selection of recombinant cell populations. Cell clones expressing the Gα16gustducin44 were selected and the clone presenting the best functional response of T2R38 to phenylthicarbamide was used for the study (see below).
(§2) The Peakrapid cell line expressing stably a chimeric Gα16gustducin44 G protein [21] was used. 40 000 cells were seeded in each well of a black/clear poly-D-lysine cellware pre-coated 96-well plate (Biocoat®, Becton-Dickinson, Erembodegem, Belgium) and transiently transfected with 50 ng of plasmid DNA containing the receptor sequence or not (empty vector) and with 50 ng of chaperone protein RTP4 per well. Forty hours after transfection, cells were incubated with the calcium-sensitive dye Fluo4 (Life Technologies, Oregon, USA) solubilized at 10 μg/ml in a buffer containing EMEM (150 mM NaCl, 5 mM KCl, 2 mM CaCl2, 1.2 mM MgCl2, 10 mM glucose), 10 mM HEPES, 0.01% (v/v) Pluronic F127, 0.1% (w/v) bovine serum albumin. After 1 h incubation at 37°C, cells were rinsed twice with the same buffer without Fluo4 and left in 50 μl buffer (prior ligand injection). Measurement were performed on a platform based on a motorized Axiobserver Z1 fluorescence microscope piloted by a Axiovision software (Zeiss, Jena, Germany) as described previously. For each selected well, images were taken 1 per second, during 30 seconds. 50 μl of the buffer containing the ligand twice concentrated was injected on the 2nd second of the time lapse record.
After time lapse record, the number of responding cells in each injected well was determined using ImageJ 1.34 (Rasband, W.S., ImageJ, National Institutes of Health, Bethesda, Maryland, USA, http://rsb.info.nih.gov/ij/1997-2004), and expressed as the percentage of the surface of a microscope field covered by activated cells with respect to the total surface of the field covered by confluent cells. Automated determination of the surface occupied by responding cells is easier to perform than a cell counting. The resulting percentage of positive surface provided a convenient estimation of the percentage of responding cells, as observed by comparing the percentage of positive surface and percentage of responsive cells determined by direct counting, in the same experiment. In agreement with the literature, the percentage of responding cells was proportional to the agonist concentration. During experiment in each plate, at least 2 wells were tested with phenylthiocarbamide (PTC) at 0.1 mM, which is one of the best characterized agonist of T2R38 in the literature. The activation of T2R38 by PTC allows normalization of the result of other tested molecules. The results were thus expressed as the percentage of PTC activation. […]

[1] = Solubility in aqueous / buffer solution; assay type: physicochemical
Method: 32 volatile metabolites of pathogens (S1 Fig) were selected from the literature. All compounds were dissolved in buffer solution, except C4HSL dissolved in buffer solution, DMSO or ethanol, C12HSL dissolved in DMSO or ethanol, and Agr D1 thiolactone dissolved in DMSO.

[2] = system: mock transfected cells (empty vector); assay: Single cell calcium imaging, control: mock transfected (empty vector) Peakrapid cells; assay type: cell-based, human
Method: as §2
(§3) After time lapse record, the number of responding cells in each injected well was determined using ImageJ 1.34 (Rasband, W.S., ImageJ, National Institutes of Health, Bethesda, Maryland, USA, http://rsb.info.nih.gov/ij/1997-2004), and expressed as the percentage of the surface of a microscope field covered by activated cells with respect to the total surface of the field covered by confluent cells. Automated determination of the surface occupied by responding cells is easier to perform than a cell counting. The resulting percentage of positive surface provided a convenient estimation of the percentage of responding cells, as observed by comparing the percentage of positive surface and percentage of responsive cells determined by direct counting, in the same experiment. In agreement with the literature, the percentage of responding cells was proportional to the agonist concentration. During experiment in each plate, at least 2 wells were tested with phenylthiocarbamide (PTC) at 0.1 mM, which is one of the best characterized agonist of T2R38 in the literature. The activation of T2R38 by PTC allows normalization of the result of other tested molecules. The results were thus expressed as the percentage of PTC activation. In scaling calcium imaging assays using this latter receptor, concentration-responses curves were performed and data were fitted to a four parameter logistic equation: y=min+ (max− min)/1+10 ^(logEC50−x)nH . Min and max are the minimum and the maximum values of the percentage of cell-activated surface respectively, y is the percentage of cell-activated surface at the x concentration and nH is the Hill coefficient.

T2R38 AVI = target: T2, T2R38 AVI (Homo sapiens, UniProt P59533, A262V); assay: Single cell calcium imaging, control: cells transfected with nonfunctional allele (AVI) of T2R38; assay type: cell-based
T2 construct: leader: first 45 amino acids of rat somatostatin receptor subtype 3 (SSTR3) (N); expressed in transfected cells; host or cells: Peakrapid cells (HEK293 derivative, ATCC CRL-2828) stably expressing Galpha16gustducin44, co-transfected with human RTP4
T2 sequence (P59533 1-333 A262V): T1 sequence (P59533 1-333 A49P/I296V) with P49A, A262V, V296I
Method: as §1, §2, §3

Compound: CC[C@H](C)[C@@H]1NC(=O)[C@H](Cc2ccccc2)NC(=O)[C@H](CC(=O)O)NC(=O)[C@@H](NC(=O)[C@@H](NC(=O)[C@H](CO)NC(=O)[C@@H](N)Cc2ccc(O)cc2)[C@@H](C)O)CSC(=O)[C@H](CCSC)NC1=O [Agr D1 thiolactone] (H-YSTCDFIM; thioester 4-C; N-terminus assumed)
agonist activity on T2R38 (in words) (T2R38): inactive | specific activation of T2R38 (T2R38; 0.1 mM solubilized in 0.3% DMSO): did not show specific activation; also recorded: did not activate T2R38 | solubility [1]: not soluble in aqueous solution

agonist activity on T2R38 (in words) (T2R38): activated T2R38 | percentage of surface covered by activated cells (T2R38; DMSO 0.15%): 0.58% and 0.91% and 0.69% and 1.00% | percentage of surface covered by activated cells (T2R38; DMSO 0.3%): 0.69% and 0.46% | Emax (% of positive control) (T2R38; percentage of the response elicited by 0.1 mM PTC): 88 % of positive control | effect on the non-functional haplotype of T2R38 (AVI) (T2R38 AVI): absence of effect
Compound: C[S+](C)[O-] [DMSO, dimethylsulfoxide]
percentage of surface covered by activated cells (T2R38; DMSO 0.0208957 M): 0.32% and 1.00% and 0.12% and 3.02% and 1.04% and 0.84% | percentage of surface covered by activated cells (T2R38; DMSO 0.0505834 M): 0.62% and 1.17% and 1.07% and 2.06% and 2.44% | percentage of surface covered by activated cells (T2R38; DMSO 0.0660305 M): 0.58% and 2.76% and 4.06% and 1.23% and 6.36% and 2.08% | percentage of surface covered by activated cells (T2R38; DMSO 1.5%): 4.39% and 7.39% and 7.25% and 2.49% and 4.85% and 7.28% | T2R38-dependent calcium response (T2R38; DMSO 1.5% (209 mM) alone): induced a T2R38-dependent calcium response of the same intensity; also recorded: activates specifically T2R38 | percentage of surface covered by activated cells ([2]; DMSO 0.0208957 M): 0.0457% and 0.0545% and 0.10% | percentage of surface covered by activated cells ([2]; DMSO 0.0505834 M): 0.62% and 0.46% and 0.98% | percentage of surface covered by activated cells ([2]; DMSO 0.0660305 M): 1.05% and 0.28% and 0.79% | percentage of surface covered by activated cells ([2]; DMSO 0.113804 M): 0.19% and 0.57% and 0.37% | percentage of surface covered by activated cells ([2]; DMSO 0.15%): 0.20% and 0.05% | percentage of surface covered by activated cells ([2]; DMSO 0.161577 M): 0.48% and 0.22% and 0.50% | percentage of surface covered by activated cells ([2]; DMSO 0.208656 M): 1.44% and 1.21% and 1.20% | percentage of surface covered by activated cells ([2]; DMSO 0.283773 M): 0.60% and 5.54% and 2.61% | percentage of surface covered by activated cells ([2]; DMSO 0.3%): 0.01% | percentage of surface covered by activated cells ([2]; DMSO 0.388101 M): 0.89% and 2.18% and 2.66% | percentage of surface covered by activated cells ([2]; DMSO 0.417313 M): 2.52% and 1.37% and 1.55% | percentage of surface covered by activated cells ([2]; DMSO 1.5%): 1.51% and 0.51% and 0.83% and 0.76% and 0.97% and 0.34%
